Reference: patent US20110053770A1, “SUBSTITUTED AMINOTHIAZOLES AND THEIR USE AS FUNGICIDES” (BAYER CROPSCIENCE AG, priority 2009, published 2011)
Like-named read-outs stand apart in the source and are kept apart here. Marks after values point to notes of the source that are not given here.

Assay: logP by HPLC on reversed-phase columns (C 18), EEC directive 79/831 Annex V.A8
Assay type: physicochemical
Conditions: for log P (**): pH 2.7, 0.1% aqueous formic acid and acetonitrile; for chromatographic logP: reversed-phase HPLC column (C 18)
Procedure: Calibration was carried out using unbranched alkan-2-ones (having from 3 to 16 carbon atoms) with known logP values (the logP values were determined by the retention times using linear interpolation between two successive alkanones).

[1] = acidic range, pH 2.3, 0.1% aqueous phosphoric acid and acetonitrile
[2] = LC-MS, neutral range, pH 7.8, 0.001 molar aqueous ammonium bicarbonate and acetonitrile

Structure (SMILES) | log P (*) [1] | log P (***) [2] | also measured
FC(F)Oc1ccc(-c2csc(N=C3CCCCN3)n2)cc1 [compound 49, 4-[4-(difluoromethoxy)phenyl]-N-[(2E/Z)-piperidin-2-ylidene]-1,3-thiazole-2-amine] | – | – | log P (**) (LC-MS, acidic range): 1.44**
FC(F)(F)Oc1ccc(-c2csc(N=C3CCCCN3)n2)cc1 [compound 50, N-[(2E/Z)-piperidin-2-ylidene]-4-[4-(trifluoromethoxy)phenyl]-1,3-thiazole-2-amine] | – | – | log P (**) (LC-MS, acidic range): 1.78**
Clc1cccc(Cl)c1-c1csc(N=C2CCCCN2)n1 [compound 51, 4-(2,6-dichlorophenyl)-N-[(2E/Z)-piperidin-2-ylidene]-1,3-thiazole-2-amine] | – | – | log P (**) (LC-MS, acidic range): 1.42**
Clc1ccc(-c2csc(N=C3CCCCN3)n2)cc1Cl [compound 52, 4-(3,4-dichlorophenyl)-N-[(2E/Z)-piperidin-2-ylidene]-1,3-thiazole-2-amine] | – | – | chromatographic logP (LC-MS, neutral range, pH 7.8, 0.001 molar aqueous ammonium bicarbonate and acetonitrile, read-out: log P (***)): 3.93; chromatographic logP (acidic range, pH 2.3, 0.1% aqueous phosphoric acid and acetonitrile, read-out: log P (*)): 1.68
Clc1ncccc1-c1csc(N=C2CCCCN2)n1 [compound 53, 4-(2-chloropyridin-3-yl)-N-[(2E/Z)-piperidin-2-ylidene]-1,3-thiazole-2-amine] | 0.71* | – | –
Fc1ccc(-c2csc(N=C3CCCCN3)n2)cc1 [compound 54, 4-(4-fluorophenyl)-N-[(2E/Z)-piperidin-2-ylidene]-1,3-thiazole-2-amine] | 1.23* | – | –
Clc1cc(Cl)cc(-c2csc(N=C3CCCCN3)n2)c1 [compound 55, 4-(3,5-dichlorophenyl)-N-[(2E/Z)-piperidin-2-ylidene]-1,3-thiazole-2-amine] | 1.59 | 4.21 | –
COc1ccc(-c2csc(N=C3CCCCN3)n2)cc1 [compound 56, 4-(4-methoxyphenyl)-N-[(2E/Z)-piperidin-2-ylidene]-1,3-thiazole-2-amine] | 1.18* | – | –
COc1cccc(-c2csc(N=C3CCCCN3)n2)c1 [compound 57, 4-(3-methoxyphenyl)-N-[(2E/Z)-piperidin-2-ylidene]-1,3-thiazole-2-amine] | 1.19 | 2.76 | –
Clc1cccc(-c2csc(N=C3CCCCN3)n2)c1 [compound 59, 4-(3-chlorophenyl)-N-[(2E/Z)-piperidin-2-ylidene]-1,3-thiazole-2-amine] | – | – | log P (**) (LC-MS, acidic range): 1.37**
Cc1cccc(-c2csc(N=C3CCCCN3)n2)c1 [compound 60, 4-(3-methylphenyl)-N-[(2E/Z)-piperidin-2-ylidene]-1,3-thiazole-2-amine] | 1.32* | – | –
c1ccc(-c2csc(N=C3CCCCN3)n2)nc1 [compound 61, N-[(2E/Z)-piperidin-2-ylidene]-4-(pyridin-2-yl)-1,3-thiazole-2-amine] | – | – | log P (**) (LC-MS, acidic range): 0.27**
Cc1cccc(-c2csc(N=C3CCCCN3)n2)n1 [compound 62, 4-(6-methylpyridin-2-yl)-N-[(2E/Z)-piperidin-2-ylidene]-1,3-thiazole-2-amine] | 0.29 | 2.13 | –
Clc1ccc(-c2csc(N=C3CCCCN3)n2)cn1 [compound 63, 4-(6-chloropyridin-3-yl)-N-[(2E/Z)-piperidin-2-ylidene]-1,3-thiazole-2-amine] | 0.94 | 2.38 | –
c1ccc(-c2ccccc2-c2csc(N=C3CCCCN3)n2)cc1 [compound 64, 4-(biphenyl-2-yl)-N-[(2E/Z)-piperidin-2-ylidene]-1,3-thiazole-2-amine] | – | – | log P (**) (LC-MS, acidic range): 1.82**
Cc1cccc(-c2ccccc2-c2csc(N=C3CCCCN3)n2)c1 [compound 65, 4-(3′-methylbiphenyl-2-yl)-N-[(2E/Z)-piperidin-2-ylidene]-1,3-thiazole-2-amine] | – | – | log P (**) (LC-MS, acidic range): 2**
Clc1ccc(-c2ccccc2-c2csc(N=C3CCCCN3)n2)cc1Cl [compound 66, 4-(3′,4′-dichloro-biphenyl-2-yl)-N-[(2E/Z)-piperidin-2-ylidene]-1,3-thiazole-2-amine] | – | – | log P (**) (LC-MS, acidic range): 2.2**
COc1ccc(-c2ccccc2-c2csc(N=C3CCCCN3)n2)cc1 [compound 67, 4-(4′-methoxybiphenyl-2-yl)-N-[(2E/Z)-piperidin-2-ylidene]-1,3-thiazole-2-amine] | – | – | log P (**) (LC-MS, acidic range): 1.83**
COc1ccc(-c2cccc(-c3csc(N=C4CCCCN4)n3)c2)cc1 [compound 68, 4-(4′-methoxybiphenyl-3-yl)-N-[(2E/Z)-piperidin-2-ylidene]-1,3-thiazole-2-amine] | 1.85 | 3.88 | –
Clc1ccccc1Cc1csc(N=C2CCCCN2)n1 [compound 69, 4-(2-chlorobenzyl)-N-[(2E/Z)-piperidin-2-ylidene]-1,3-thiazole-2-amine] | 1.39* | – | –

Structure (SMILES) | log P (*) [1] | log P (***) [2] | also measured
Clc1cccc(Cc2csc(N=C3CCCCN3)n2)c1 [compound 70, 4-(3-chlorobenzyl)-N-[(2E/Z)-piperidin-2-ylidene]-1,3-thiazole-2-amine] | 1.58 | 3.36 | –
Cc1cccc(-c2cccc(-c3csc(N=C4CCCCN4)n3)c2)c1 [compound 71, 4-(3′-methylbiphenyl-3-yl)-N-[(2E/Z)-piperidin-2-ylidene]-1,3-thiazole-2-amine] | 2.12 | 4.48 | –
c1sc(N=C2CCCCN2)nc1CC1CC1 [compound 72, 4-(cyclopropylmethyl)-N-[(2E/Z)-piperidin-2-ylidene]-1,3-thiazole-2-amine] | 1.07 | 2.73 | –
CC(c1ccccc1)c1csc(N=C2CCCCN2)n1 (stereo not drawn) [compound 73, 4-(1-phenylethyl)-N-[(2E/Z)-piperidin-2-ylidene]-1,3-thiazole-2-amine] | 1.51 | 3.27 | –
Clc1ccc(Oc2ccccc2-c2csc(N=C3CCCCN3)n2)cc1 [compound 74, 4-[2-(4-chlorophenoxy)phenyl]-N-[(2E/Z)-piperidin-2-ylidene]-1,3-thiazole-2-amine] | 2.03* | – | –
Fc1ccc(Oc2ccccc2-c2csc(N=C3CCCCN3)n2)cc1 [compound 75, 4-[2-(4-fluorophenoxy)phenyl]-N-[(2E/Z)-piperidin-2-ylidene]-1,3-thiazole-2-amine] | 1.87* | – | –
Fc1cccc(F)c1Oc1ccccc1-c1csc(N=C2CCCCN2)n1 [compound 76, 4-[2-(2,6-difluorophenoxy)phenyl]-N-[(2E/Z)-piperidin-2-ylidene]-1,3-thiazole-2-amine] | 1.8 | 3.78 | –
Fc1ccc(Oc2ccccc2-c2csc(N=C3CCCCN3)n2)c(F)c1F [compound 77, N-[(2E/Z)-piperidin-2-ylidene]-4-[2-(2,3,4-trifluorophenoxy)phenyl]-1,3-thiazole-2-amine] | 2.01 | 4.17 | –
Fc1ccc(Oc2ccccc2-c2csc(N=C3CCCCN3)n2)cc1F [compound 78, 4-[2-(3,4-difluorophenoxy)phenyl]-N-[(2E/Z)-piperidin-2-ylidene]-1,3-thiazole-2-amine] | 1.83 | 4.18 | –
Cc1ccc(Oc2ccccc2-c2csc(N=C3CCCCN3)n2)cc1 [compound 79, 4-[2-(4-methylphenoxy)phenyl]-N-[(2E/Z)-piperidin-2-ylidene]-1,3-thiazole-2-amine] | 2.17 | 4.51 | –
Fc1ccc(F)c(Oc2ccccc2-c2csc(N=C3CCCCN3)n2)c1 [compound 80, 4-[2-(2,5-difluorophenoxy)phenyl]-N-[(2E/Z)-piperidin-2-ylidene]-1,3-thiazole-2-amine] | 1.94 | 3.98 | –
c1ccc(Cc2ccccc2-c2csc(N=C3CCCCN3)n2)cc1 [compound 81, 4-(2-benzylphenyl)-N-[(2E/Z)-piperidin-2-ylidene]-1,3-thiazole-2-amine] | – | 2.02*** | –
Fc1cc(F)c(Oc2ccccc2-c2csc(N=C3CCCCN3)n2)c(F)c1 [compound 82, N-[(2E/Z)-piperidin-2-ylidene]-4-[2-(2,4,6-trifluorophenoxy)phenyl]-1,3-thiazole-2-amine] | 2.02 | 3.96 | –
Fc1cccc(Oc2ccccc2-c2csc(N=C3CCCCN3)n2)c1 [compound 83, 4-[2-(3-fluorophenoxy)phenyl]-N-[(2E/Z)-piperidin-2-ylidene]-1,3-thiazole-2-amine] | 1.95* | – | –
Brc1ccc(Oc2ccccc2-c2csc(N=C3CCCCN3)n2)cc1 [compound 84, 4-[2-(4-bromophenoxy)phenyl]-N-[(2E/Z)-piperidin-2-ylidene]-1,3-thiazole-2-amine] | 2.14* | – | –
Clc1cccc(Oc2ccccc2-c2csc(N=C3CCCCN3)n2)c1 [compound 85, 4-[2-(3-chlorophenoxy)phenyl]-N-[(2E/Z)-piperidin-2-ylidene]-1,3-thiazole-2-amine] | 2.16* | – | –
Brc1ccccc1Oc1ccccc1-c1csc(N=C2CCCCN2)n1 [compound 86, 4-[2-(2-bromophenoxy)phenyl]-N-[(2E/Z)-piperidin-2-ylidene]-1,3-thiazole-2-amine] | 2.06 | 4.38 | –
Brc1cccc(Oc2ccccc2-c2csc(N=C3CCCCN3)n2)c1 [compound 87, 4-[2-(3-bromophenoxy)phenyl]-N-[(2E/Z)-piperidin-2-ylidene]-1,3-thiazole-2-amine] | 2.19 | 4.71 | –
Fc1ccc(Cc2ccccc2-c2csc(N=C3CCCCN3)n2)c(F)c1 [compound 88, 4-[2-(2,4-difluorobenzyl)phenyl]-N-[(2E/Z)-piperidin-2-ylidene]-1,3-thiazole-2-amine] | 2.04 | 4.27 | –
Clc1cc(Cl)cc(Cc2ccccc2-c2csc(N=C3CCCCN3)n2)c1 [compound 89, 4-[2-(3,5-dichlorobenzyl)phenyl]-N-[(2E/Z)-piperidin-2-ylidene]-1,3-thiazole-2-amine] | – | 5.35 | log P (**) (LC-MS, acidic range): 2.43
